Laboratory results reported in patent US12415939B2, “Nano-adhesive and surface primer compound and use thereof” (The Regents of the University of California, priority 2015, dated 2025).
Where “and” joins values, the source holds several entries; their conditions need not be identical. Identical values can stand only once.

What was measured:
[1] = AFM height profiles of adsorbed primers; format: physicochemical
Procedure: Each primer solution (1 wt %) was prepared in methanol (for P1-P3) or DMSO (for P4). The primer solution was drop cast onto a freshly cleaved mica or glass surface, and kept at room temperature for 1 min. Subsequently, the surfaces were thoroughly rinsed with the respective solvents and dried with argon. All images, surface profiles and surfaces roughnesses were collected using an Asylum MFP-3D standard system (Asylum Research, Santa Barbara, CA) using silicon cantilevers (FORTGG-50, Applied NanoStructures, Santa Clara, CA) (FIGS. 48C and 49).

[2] = system: L929 mammalian fibroblast cells; test: Cell viability assay on surface treated glass (ISO 10993); format: cell-based; conditions: primed glass surface, 3 days, trypan blue
Procedure: L929 mammalian fibroblast cells were purchased from the Korean Cell Line Bank (Seoul, Korea) and cultured in Roswell Park Memorial Institute (RPMI) 1640 media (Life Technologies) with 10% fetal bovine serum, 25 mM sodium bicarbonate and 1% penicillin-streptomycin. Silane-grafted and Catechol (P3) primed glass slides were prepared by following procedures described in section 6 and 3, respectively. Each glass substrate was placed on the 100π cell culture plate and sterilized by 70% ethanol solution. After equilibrated in phosphate buffered saline (PBS) and media for 5 min each, L929 cells were seeded onto the glass substrates at a density of 1×10^6 cells per plate. Cells were incubated for 3 days in 5% CO2 at 37° C. After 3 days, the substrates were transferred to new culture plates and washed extensively with PBS. Cells were then detached by 0.05% trypsin-EDTA and stained with trypan blue solution to assess cell viability. Living cells are impermeable to the stain, whereas dead cells with compromised membranes turn blue. The number of live cells was counted using a standard hemocytometer. The bare glass slide without any modification served as a control (FIGS. 56A-56B).

[3] = Lap shear test of cured PMA resin on primed tooth enamel; set-up: species or system human
Procedure: (§1) 1 wt % primer solution was spread on mica, glass, tooth enamel, or a silicon wafer and incubated for 1 min, followed by thorough washing with methanol (for MDP, P1-P3) or DMSO (for P4) and drying by flowing nitrogen. The surfaces were exposed to a basic aqueous solution (pH 9, using sodium hydroxide), incubated for 1 min, and drying by flowing nitrogen (see FIG. 52). The methacrylic comonomer blend (Bis-GMA, TEGDMA, DMAEMA and CQ) was packed in a gelatin capsule (size #4, 5-mm diameter, Torpac Inc.) and placed up on top of the primer-treated substrates. The comonomer blend was cured (or crosslinked) for 1 min using a portable dental curing lamp (Foshan Liang Ya Dental Co., LY-A180, 420-480 nm, 1200-2000 mW·cm^−2) (see FIG. 53). Uniaxial compression was applied to the capsule at a rate of 0.05 inch min^−1 using a materials testing system (MTS Bionix 200) until the capsules are separated from the substrate. The lap shear fracture measurements were repeated at least 10 times for each condition.

[4] = Lap shear test of cured PMA resin on primed silica/glass; conditions: second value of each pair (silica)
Procedure: as §1

[5] = SFA adhesion of cured PMA resin between primer-treated mica surfaces
Procedure: Atomically-smooth muscovite mica sheets were freshly cleaved (thickness of 2-5 μm) and attached on another large freshly cleaved mica backing sheet under a laminar flow hood and placed in a desiccator for clean storage. To ensure use of a fresh surface for each experiment, mica was peeled away from the backing sheet and glued on cylindrical disks using an epoxy glue (EPON 1004 F® from Exxon Chemicals). In each experiment, the mica surfaces were treated with one of the primer solutions, as described for the lap shear experiments, and then mounted in the SFA in a cross cylindrical geometry. In contrast to typical SFA experiments, which use an interferometric method to calculate the disk-disk separation distances and thus the interaction forces, in the SFA used here for adhesion testing, the disk separations were directly measured using semiconductor strain-gauged double cantilever springs (k=1000-10000 N/m)(see FIG. 67). After separating the surfaces, 100 […]1 of comonomer blend was injected between the two surfaces. Then, ˜600 mN of load was applied, followed by visible light curing for 1 min using the portable dental curing lamp (see FIG. 54G). Adhesion strength of cured polymer toward the mica was measured by detaching (unloading) two surfaces. All loading and unloading were performed using a coarse micrometer at the velocity of […]. The SFA measurements were repeated at least 5 times for each condition.

[6] = Lap shear test of cured PMA resin on primed mica; conditions: first value of each pair (mica)
Procedure: as §1

[7] = QCM-D adsorption of primers; format: physicochemical
Procedure: A ‘static cell’ (often called ‘Open Module’) QCM-D (Q-Sense, Biolin Scientific) was employed to quantitatively evaluate the adsorption of each primer onto SiO2 surface using a quartz sensor (QSX 303, Biolin Scientific). Changes in resonance frequency (ΔF) and dissipation (ΔD) of the SiO2 were recorded and used to measure the adsorbed mass and layer viscoelasticity, respectively, of the primer deposited on the sensor. In detail, pure solvent (100 μl) was dropped onto the sensor and equilibrated for ˜20-30 min. Then, 2 wt % primer solution (100 μl) was dropped onto the sensor (this is labeled “Solution Drop-in” in FIG. 51) and equilibrated until the frequency and dissipation signals stabilized. To remove unbound primers, the sensor was rinsed with solvents (this is labeled “Solvent Rinsing” in FIG. 51) and equilibrated until frequency and dissipation signals stabilized.
Mass loss of P3 and P4 during the rinsing was negligible compared to P2 which lost 60% of initial mass, indicating outstanding adsorption efficiency of catechol-containing primers on SiO2 surfaces even compared to mussel foot protein adsorption (˜30% loss of mfp-3s^3). The priming thickness of P4 estimated by QCM-D is ˜3.1 nm which agrees with the average height of AFM images (˜3.5 nm), assuming that QCM-D measures the average thickness of a uniform layer. The smaller average thickness of P4 (˜3.1 nm) compared to the molecular contour length (˜4.8 nm) may be attributed to the flexible alkyl spacer in P4. The possibility of a softer, more flexible layer with P4 is supported by a higher change in dissipation (ΔD) compared to other primers.

[8] = Stability of isolated compound over time (NMR observation); format: physicochemical; conditions: after isolation
Procedure: Attempts to increase the level of purity by either recrystallization or HPLC were unsuccessful and the compound was used “as is” for further study. It is recommended that extra care is taken to ensure that this compound be protected from atmospheric oxygen, and be used and analyzed immediately after isolation. […] Reaction time=4 days (96 hours) 69% isolated yield.

[9] = Surface forces apparatus (SFA) cohesion/adhesion between thin films on mica; format: physicochemical; conditions: symmetric films adsorbed from 5 mM, DI water, mica
Procedure: The interaction between two surfaces can be measured with nano-Newton level force resolution and Angstrom level resolution in the separation distance between the surfaces. The details of the SFA techniques have been describe in a work by Israelachvili et al. In a typical SFA experiment (FIG. 2C), the distance and the force between the surfaces are measured simultaneously. To begin with, the instrument is calibrated at large separation distances. When the two surfaces are not interacting, i.e., they are separated by large distances, the change in the separation between them is equal to the distance through which the motor moves the lower surface towards or away from the upper surface (or the upper surface driven by the piezo-tube moves towards the lower surface). However, once the surfaces are close enough to start interacting with each other, the measured separation distance deviates from the expected separation calibrated when there is no force between the surfaces. This deviation is due to the deflection of the double cantilever spring and is directly proportional to the force acting normally between the two opposing surfaces. Thus the normal force can be measured using Hooke's law, F=kΔx, where k is the spring constant of the double-cantilever spring and Δx=Dactual−Dapplied is the deflection of the spring, determined by taking the difference between the applied change in position of one of the surfaces Dapplied and the actual change in distance measured between the surfaces Dactual. The actual distance, Dactual, between the surfaces can be measured by multiple beam interferometry (MBI) and will be discussed below.
The distance between the surfaces, shape of the interface and the refractive index of the media between the surfaces can be accurately determined by Multiple Beam Interferometry (MBI) technique. In this technique, white light is directed through two back-silvered mica surfaces (or uniform and same thickness). As a white light passes between the mica surfaces, it undergoes interference due to the optical trap set up by the back silver on each of these surfaces giving rise to discrete wavelengths of light (FIG. 2C). These wavelengths of light are resolved in a spectrometer creating interference fringes known as ‘fringes of equal chromatic order’ (FECO). Since mica is birefringent, the FECO appears as doublets and termed as β and γ. Alternate fringes are termed as odd and even fringes with odd fringes having nodes at the center and even fringes with anti-nodes in the center. The FECO is then recorded on a camera and analyzed to determine the distance between the surfaces using the following equations: […]
The adhesion/cohesion energy of the synthetic zwitterionic molecules was investigated in SFA (SurForce LLC, Santa Barbara, CA). Two molecularly smooth freshly cleaved back silvered mica surfaces glued on cylindrical silica discs of radius of curvature, R˜2 cm, were mounted in the SFA and 50 μL of a colloidal dispersion of the synthetic molecules in DI water were injected between the surfaces at different concentrations (C=0.5-5 mM) and the forces between the thin films of the molecules were measured by Multiple Beam Interferometry (MBI). The adhesion forces between Z-Cat-C10 molecules on various surfaces, e.g., silica and copper, were also measured by AFM (MFP-3D, Asylum research, Goleta, CA) in DI water and ambient conditions, respectively, at room temperature. AFM probes with a silicon dioxide particle (10, 5, and 1 μm, respectively) on a silicon nitride (SN) cantilever-0.6 N m^−1 were purchased from Novascan Technologies, Inc (Ames, IA). Cantilever spring constants were measured for each force run. Images of Z-Cat-C10 coating on silicon wafer and copper plates were visualized in an AFM. […]

[10] = n-DTS-modified nano-grooved SiO2, earlier reports; cited from earlier work
[11] = Contact angle measurements on SAM-modified substrates; format: physicochemical; conditions: SAM-modified nano-grooved SiO2
Procedure: The nano-grooved SiO2 substrates passivated with Z-Cat-Ben or Z-Cat-Ben-F SAMs were prepared with the same procedure described above. For the reference substrate, the pre-cleaned and ultraviolet/ozone-treated (for 10 min) nano-grooved SiO2 substrate was passivated with n-decyltrichlorosilane (Gelest Inc.) in toluene solution (1% by volume) at 80° C. for 20 min in ambient air. Then, the substrate was subsequently sonicated in toluene and rinsed with additional toluene several times. Anhydrous chlorobenzene (50 μL) was used as a droplet dropping on the substrates. All contact angle images were taken at the direction perpendicular to nano-grooves in the substrates using Dataphysics OCA 15EC goniometer.

For `C=CC(=O)OCC(O)Cc1ccc(O)c(O)c1` (stereo not shown) [P3, 3-(3,4-dihydroxyphenyl)-2-hydroxypropyl acrylate], the “adsorption seen by AFM” value ([1]; 1 wt.% solution, mica and glass) was “densely primed”, the AFM height ([1]; mica) was 1-2 nm and the contact cytotoxicity [2] was “non-toxicity was confirmed”. The “lap shear strength σshear,max” value [3] was 3.0±0.3 MPa, the “lap shear strength σshear,max” value [4] was 4.2±0.7 MPa and the “Pad relative to MDP primer” value [5] was roughly 8 times. For the same compound, the “Pad relative to Silane primer” value [5] was roughly 2 times, the “increase in adhesion vs plain mica (no primer)” value [5] was roughly 10 fold and the “adhesion pressure Pad” value ([5]; n=5) was 201.5±50.2 kPa and ~200 kPa. For the same compound, the “lap shear strength σshear,max” value [6] was 0.8±0.2 MPa, the “thickness from QCM-D” value [7] was roughly 1.6 nm and the “mass loss during rinsing” value ([7]; of initial mass) was “negligible”.

In the case of `C[N+](C)(CCCc1ccc(O)c(O)c1)CCOP(=O)([O-])OCCCc1ccc(O)c(O)c1` [Z-Cat-Cat], the stability over time [8] is reported as “highly susceptible to degradation over time” and the “cohesion (or adhesion) energy Wc” value [9] is reported as 8.1±1.3 mJ m^−2.

For `CCCCCCCCCC[Si](Cl)(Cl)Cl` [n-DTS, n-decyltrichlorosilane, reference compound], the saturation hole mobilities [10] is given as 23-58 cm^2 V^−1 s^−1 and the “contact angle θ of chlorobenzene droplet” value [11] is given as “≈ 31 °”.
